2 compounds from US8889699B2, “5-fluorouracil derivative” (Delta-Fly Pharma, Inc., priority 2009, dated 2014) can be followed below.

Structures are written as SMILES.

In data set [1] the test system is Human colon cancer strain (KM12C). The procedure: (§1) The resulting product was stirred with a stirrer at room temperature for about 10 minutes. […] The proliferated strain was extracted, cut into about 2 to 3 mm square pieces with scissors in physiological saline, and subcutaneously inoculated to the right axillary region of rats of the same strain, 5 to 6 weeks of age, using a transplantation needle. […] Then, drug administration was initiated from the next day. Each of the test liquids shown in (a) to (b) above was administered orally to the rats in each of the test drug groups using a sonde for oral administration at a dose of 0.1 ml per 10 g body weight once a day for 14 continuous days. In the same manner as the above, the cancer-bearing rats in the control group were subjected to oral administration of only 0.5% HPMC liquid for 14 continuous days.
(§2) The tumor volume of each rat in each group before the initiation of the treatment, on day 3, day 5, day 8 (1 week after), day 11, and day 15 (2 weeks after), i.e., after termination of the administration, was calculated using Equation 1 below, and respective relative tumor volume (RTV) relative to the tumor volume at the time of initiation of the treatment was calculated. In relation to the antitumor effect, the average value of the tumor proliferation inhibition ratio (IR; %) was calculated from the average tumor volume of each treatment group on day 15 (after termination of the treatment) relative to that of the control group on day 15, using Equation 2. […] Along therewith, a weight change ratio was calculated from the body weight of the rats at the time of the termination of the drug administration relative to the body weight of the rats at the time of the initiation of the administration, using Equation 3. […] A coagulation inhibitor was added to each of the collected blood samples, and the white blood cell count, red blood cell count, and platelet count were measured using a hemocytometer.

Data set [2] relates to human gastric cancer strain (SC-2). How it is done:
as §1, §2

The target in another data set is T1, DPD (Rattus norvegicus, UniProt O89000).
T1 construct: the obtained supernatant was used as a DPD enzyme solution or an OPRT enzyme solution; from tissue; host or cells: liver of 8-week old SD rat; 105,000 g supernatant of homogenate
T1 sequence (O89000 1-1025): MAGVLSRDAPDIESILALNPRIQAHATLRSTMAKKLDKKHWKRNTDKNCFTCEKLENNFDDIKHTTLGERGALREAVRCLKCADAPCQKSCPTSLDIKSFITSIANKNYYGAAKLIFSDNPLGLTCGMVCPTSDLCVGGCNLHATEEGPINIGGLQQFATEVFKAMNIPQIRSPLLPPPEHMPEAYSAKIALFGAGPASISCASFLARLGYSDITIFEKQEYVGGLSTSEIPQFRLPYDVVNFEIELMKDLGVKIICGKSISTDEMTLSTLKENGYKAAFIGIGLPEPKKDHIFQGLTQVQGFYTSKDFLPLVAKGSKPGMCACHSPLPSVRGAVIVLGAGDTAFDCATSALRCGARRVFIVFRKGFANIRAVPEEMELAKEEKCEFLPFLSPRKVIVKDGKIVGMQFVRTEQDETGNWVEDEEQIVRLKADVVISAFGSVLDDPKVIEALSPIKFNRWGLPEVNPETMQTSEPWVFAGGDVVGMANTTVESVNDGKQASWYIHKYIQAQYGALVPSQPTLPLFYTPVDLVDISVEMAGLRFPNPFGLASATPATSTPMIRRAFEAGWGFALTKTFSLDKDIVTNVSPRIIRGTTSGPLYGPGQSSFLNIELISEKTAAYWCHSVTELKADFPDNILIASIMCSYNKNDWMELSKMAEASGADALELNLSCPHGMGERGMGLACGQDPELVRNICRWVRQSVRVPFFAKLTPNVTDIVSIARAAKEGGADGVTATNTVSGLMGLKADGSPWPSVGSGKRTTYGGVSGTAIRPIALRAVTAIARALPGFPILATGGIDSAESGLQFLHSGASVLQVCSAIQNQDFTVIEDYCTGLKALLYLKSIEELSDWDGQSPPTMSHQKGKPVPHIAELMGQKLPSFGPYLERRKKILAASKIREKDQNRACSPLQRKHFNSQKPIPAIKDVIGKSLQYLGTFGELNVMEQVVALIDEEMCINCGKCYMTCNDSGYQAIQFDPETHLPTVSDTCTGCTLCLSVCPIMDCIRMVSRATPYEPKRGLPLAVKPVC
In words: DPD inhibitory action in vitro (enzyme reaction, tritium-labeled 5-FU as substrate). Conditions: Conc. 0.02 μM; Table 5. The data set is classed as biochemical.

Where [3] appears, read: oral, 14 days, Compound I-11 71 to 88 mg/kg/day, S-1 20 to 22.5 mg/kg/day.

In the case of `CCOCn1cc(F)c(=O)n(C(=O)c2cccc(C(=O)Oc3cc(OC(=O)c4cc(OC(C)=O)nc(OC(C)=O)c4)c(Cl)cn3)c2)c1=O` [Compound I-10, 3-{3-[4-(2,6-diacetyloxyisonicotinoyloxy)-5-chloro-2-pyridyloxycarbonyl]benzoyl}-1-ethoxymethyl-5-fluorouracil], the antitumor effect result in data set [1] (oral, 14 days, Compound I-10 51 to 77 mg/kg/day, S-1 15 to 22.5 mg/kg/day, FIG. 2-1) is listed as “high antitumor effects in a dose-dependent manner”. Moreover, in data set [1] (rat, in vivo), the diarrhea entry is recorded as “not observed”, the “platelet count relative to that of the control group” value is given as “the same as that of the control group” and the weight loss result is “not observed”.
By inhibition is commonly meant the share of the control response that was lost under treatment. A high value points to a strong effect. Regarding `CCOCn1cc(F)c(=O)n(C(=O)c2cccc(C(=O)Oc3cc(OC(=O)c4cc(OC(=O)CC)nc(OC(=O)CC)c4)c(Cl)cn3)c2)c1=O` [Compound I-11, 3-{3-[4-(2,6-dipropionyloxyisonicotinoyloxy)-5-chloro-2-pyridyloxycarbonyl]benzoyl}-1-ethoxymethyl-5-fluorouracil], the “white blood cell count, reduced to % of that of the control group” value in data set [2] (71 to 88 mg/kg/day orally for 2 weeks, FIG. 1-2) is on record as “about 50%”. Moreover, the “platelet count relative to that of the control group” value in data set [2] (oral, 2 weeks, Compound I-11 71 to 88 mg/kg/day, S-1 20 to 22.5 mg/kg/day, FIG. 1-2) is “almost the same as that of the control group”. In addition, the toxic death result in data set [2] (oral, 14 days, Compound I-11 71 to 88 mg/kg/day) is recorded as “not observed”. Besides, in data set [2] (setting [3]), the diarrhea entry is given as “not observed” and the weight loss result is recorded as “not observed”. The antitumor effect entry in data set [2] (oral, 14 days, Compound I-11 71 to 88 mg/kg/day, S-1 20 to 22.5 mg/kg/day, FIG. 1-1) is on record as “high antitumor effects in a dose-dependent manner”. Further, on DPD, the “DPD Inhibitory Activity: Activity” value is 0.705 nmol/mL/min and the inhibition at 0.02 µM stood at 0%.
